Laboratory results taken from BindingDB's records for doi:10.7270/Q2SB4462 (Burnham Center For Chemical Genomics, 2011).

The compounds below were run against T1, Ubiquitin-conjugating enzyme E2 N (Homo sapiens, UniProt P61088) (assay: UBC13 polyubiquitination inhibitor potency, dose response, biochemical, TR-FRET, reconfirmation (AID 493182)).
T1 sequence (P61088 whole entry): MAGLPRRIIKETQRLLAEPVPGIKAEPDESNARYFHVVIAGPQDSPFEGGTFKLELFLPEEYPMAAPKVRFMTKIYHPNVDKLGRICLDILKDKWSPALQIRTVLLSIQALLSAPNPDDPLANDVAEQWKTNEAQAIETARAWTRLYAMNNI
For C#CCOCCOCCOCCNc1nc(N2CCN(C(=O)[C@H](Cc3cc4ccccc4[nH]3)n3cc([C@@H](N)C(C)CC)nn3)CC2)nc(N2CCN(C(=O)[C@H](Cc3cc4ccccc4[nH]3)n3cc([C@@H](N)Cc4ccc(O)cc4)nn3)CC2)n1 (stereo partly drawn) [SMR000391146], the IC50 was 6.27 µM. For CC1CC(C)(C)N2C(=O)/C(=N\NC(N)=S)c3cccc1c32 (stereo not drawn) [SMR000414933], the IC50 was 4.95 µM. CCN(CC)CCOC(=O)c1ccc(N=CC(C#N)c2nc(-c3ccc(OC)c(OC)c3)cs2)cc1 (stereo not drawn) [SMR000434079] was tested, and the IC50 was 3.02 µM. C#CCOCCOCCOCCNc1nc(N2CCN(C(=O)C([C@@H](C)CC)n3cc(C(N)COC(=O)C(F)(F)F)nn3)CC2)nc(N2CCN(C(=O)[C@H](CCCCN)n3cc(C(N)CC(C)C)nn3)CC2)n1 (stereo partly drawn) [SMR000453712] showed an IC50 of 15.3 µM. In the case of C#CCOCCOCCOCCNc1nc(N2CCN(C(=O)CCCCCCCCCCNC(=O)Cn3cc(CCCCCN)nn3)CC2)nc(N2CCN(C(=O)CCCCCCCCCCNC(=O)Cn3cc(CCCCCN)nn3)CC2)n1 [SMR001231146], the IC50 is reported as 3.36 µM. In the case of C#CCOCCOCCOCCNc1nc(N2CCN(C(=O)CCCCCCCCCCNC(=O)[C@H](CO)n3cc(CCCSC)nn3)CC2)nc(N2CCN(C(=O)CCCCCCCCCCNC(=O)[C@H](CCCCN)n3cc(CCO)nn3)CC2)n1 [SMR001318322], the IC50 is reported as 5.71 µM. For Cc1cccc2c1C(=NNC(N)=S)C(=O)N2C1OC(CO)C(O)C(O)C1O (stereo not drawn) [The compound has not trivial name.], the IC50 was 4.56 µM. Compound NC(=S)NN=C1C(=O)N(C2OC(=O)c3ccccc32)c2ccccc21 (stereo not drawn) [[(Z)-[2-oxo-1-(3-oxo-1H-isobenzofuran-1-yl)-3-indolylidene]amino]thiourea] has an IC50 of 2.38 µM.
